US9125855B2, “Prevention of Salmonella recrudescense” (priority 2011, dated 2015)

Experiments:
[1] = system: Salmonella Typhimurium in PAM; experiment: Contribution of the cytoskeleton to cortisol induced intracellular proliferation in PAM; format: cell-based, porcine; settings: 2 μM cytochalasin D and/or 20 μM nocodazole, 1 μM cortisol, 24 hours
Description: Therefore, PAM is were seeded in 24-well plates at a density of approximately 5×10^5 cells per well, allowed to attach for 2 hours and infected with Salmonella, as described in the iTRAQ analysis.

[2] = system: Salmonella Typhimurium in PAM; settings: 1 μM, 24 hours; cited from earlier work
[3] = system: Salmonella Typhimurium in PAM; experiment: Intracellular survival assay in PAM; format: cell-based, porcine; settings: for intracellular proliferation of Salmonella Typhimurium in PAM: 1 μM
Description: Porcine pulmonary alveolar macrophages (PAM) were isolated by broncho-alveolar washes from lungs of euthanized 3 to 4 week old piglets, obtained from a Salmonella-negative farm, as described previously (Dom et al., 1992). The isolated cells were pooled and frozen in liquid nitrogen until further use. Prior to seeding the cells, frozen aliquots of approximately 10^8 cells per ml were thawed and washed 3 times in Hank's buffered salt solution with Ca^2+ and Mg^2+ (HBSS+, Gibco) with 10% (v/v) fetal calf serum (FKS, Hyclone, Cramlington, England) at 4° C. Finally, these cells were cultured in Roswell Park Memorial Institute medium (RPMI, Gibco) containing 10% (v/v) FKS, 1% (v/v) L-glutamine (Gibco), 1% (v/v) sodium pyruvate (Gibco), 1% (v/v) MEM non essential amino acids (NEAA, Gibco) and 1% (v/v) penicillin-streptomycin (Gibco).
(§1) The number of viable bacteria was assessed 24 hours after infection.
Following the IVET screening, the intracellular survival assay was repeated with Salmonella Typhimurium ΔscsA and ΔcbpA and compared to the WT.

[4] = system: Salmonella Typhimurium infected PAM; experiment: iTRAQ comparative proteome study of cortisol treated Salmonella infected PAM; format: cell-based, porcine; settings: 1 μM cortisol
Description: We used a gel-free approach called isobaric tags for relative and absolute quantification (iTRAQ) in which four different isobaric labels are used to tag N-termini and lysine side chains of four different samples with four different isobaric reagents. Upon collision-induced dissociation during MS/MS, the isobaric tags are released, which results in four unique reporter ions that are used to quantify the proteins in the four different samples (Ross et al., 2004).
Sample preparation: PAM were isolated and cultured as described in Verbrugghe et al. (2011), they were seeded in 175 cm^2 cell culture flasks at a density of approximately 5×10^7 cells per flask and were allowed to attach for 2 hours. Subsequently, PAM were washed 3 times with Hank's buffered salt solution with Ca^2+ and Mg^2+ (HBSS+, Gibco) and a gentamicin protection invasion assay was performed as described by Boyen et al. (2009a). Briefly, Salmonella was inoculated into the cell culture flasks at a multiplicity of infection (MOI) of 10:1. To synchronize the infection, the inoculated flasks were centrifuged at 365×g for 10 min and incubated for 30 min at 37° C. under 5% CO2. […] The supernatant was held on ice until further use and the pellet was dissolved and sonicated (6 times 30 sec), using an ultrasonic processor XL 2015 (Misonix, Farmingdale, N.Y., USA), in reagent 3 of the Ready Prep Sequential extraction kit (Bio-Rad, Hercules, Calif., USA). […] Protein concentration was determined using the Bradford Protein Assay (Thermo Fisher Scientific, Rockford, USA) according to the manufacterer's instructions.
Trypsin digest and iTRAQ labeling: Digest and labeling of the samples (100 μg proteins per sample) with iTRAQ reagents was performed according to the manufacturer's guidelines (AB Sciex, Foster City, Calif., USA). Individual samples of cortisol treated or untreated PAM were analyzed in the same run, making paired comparisons possible and minimizing technical variation. […] Each fraction was analyzed by nano LC-MSMS as described by Bijttebier et al. (2009). […]

[5] = system: Salmonella Typhimurium in PAM; experiment: Invasion assay in PAM; format: cell-based, porcine; settings: for invasion of Salmonella Typhimurium in PAM: 1 μM
Description: (§2) For the invasion assays, PAM and IPEC-J2 cells were seeded in 24-well plates at a density of approximately 5×10^5 cells and 10^5 cells per well, respectively. PAM were allowed to attach for at least 2 hours and IPEC-J2 cells were allowed to grow for at least 24 hours. […] After 24 hours the invasion assay was performed as described by Boyen et al., 2009a. Finally the PAM and IPEC-J2 cells were washed 3 times and lysed for 10 min with 1% (v/v) Triton X-100 or 0.2% (w/v) sodium deocxycholate (Sigma-Aldrich), respectively and 10-fold dilutions were plated on BGA plates.

PAM = experiment: Cytotoxicity assay (LDH); format: cell-based, porcine; settings: 0.001 to 100 μM
Description: Therefore PAM were seeded in a 96-well microplate at a density of approximately 2×10^5 cells per well and were allowed to attach for at least 2 hours. The IPEC-J2 cells were seeded and allowed to grow for at least 24 hours in a 96-well microplate at a density of approximately 2×10^4 cells per well in Dulbecco's modified Eagle's is medium (DMEM, Gibco) supplemented with 46.5% (v/v) Ham's F12 medium (Gibco), 5% (v/v) FKS and 1% insulin-transferrin-selenium-A supplement (ITS, Gibco).
The LDH test was used in accordance to the manufacturer's instructions and the absorbance was measured at 492 nm using a microplate ELISA reader (Multiscan M S, Thermo Labsystems, Helsinki, Finland).

[6] = system: Salmonella Typhimurium in IPEC-J2 cells; experiment: Invasion assay in IPEC-J2 cells; format: cell-based, porcine; settings: for invasion of Salmonella Typhimurium in IPEC-J2 cells: 1 μM
Description: as §2

[7] = system: Salmonella Typhimurium WT; experiment: Effect of cortisol on the gene expression of Salmonella Typhimurium (microarray); settings: 1 μM, stationary and logarithmic phase culture
Description: Two OD600 nm units of each culture were incubated in one-fifth culture volume 5% (v/v) phenol pH 4.3/95% (v/v) ethanol solution for 30 min on ice to stabilize the RNA. Subsequently, the RNA was extracted using the SV Total RNA purification kit (Promega, Leiden, the Netherlands).
Each condition was tested in triplicate and transcriptomic techniques involved Salmonella Typhimurium microarrays constructed at the Institute of Food Research, Norwich, UK, as described previously (Clements et al., 2002; Yberg et al., 2006). The microarray used in this study was the whole-genome SALSA cDNA microarray covering 5080 genes and data analysis was performed as described by Eriksson-Ygberg et al., 2006.

[8] = system: Salmonella Typhimurium in IPEC-J2 cells; experiment: Intracellular survival assay in IPEC-J2 cells; format: cell-based, porcine
Description: The polarized intestinal porcine epithelial (IPEC-J2) cell line is derived from jejunal epithelia isolated from a neonatal piglet (Rhoads et al., 1994; Schierack et al., 2006).
as §1

[9] = system: Salmonella Typhimurium WT; experiment: Effect of cortisol on the growth of Salmonella Typhimurium; settings: 0.001 to 100 μM, LB broth, 24 hours
Description: Therefore, Salmonella Typhimurium was grown in LB broth whether or not supplemented with cortisol. The number of CFU per ml was determined at different time points by titration of 10-fold dilutions of the bacterial suspensions on BGA. After incubation for 24 hours at 37° C., the number of colonies was counted.

pig = settings: 2 mg dexamethasone per kg body weight; cited from earlier work

COC(=O)Nc1nc2ccc(C(=O)c3cccs3)cc2[nH]1 [nocodazole]
cortisol induced increased survival of the bacterium in PAM [1]: inhibition

C[C@]12CCC(=O)C=C1CC[C@@H]1[C@@H]2[C@@H](O)C[C@@]2(C)[C@H]1CC[C@]2(O)C(=O)CO [cortisol, Cortisol]
number of intracellular Salmonella Typhimurium bacteria compared to untreated PAM [2]: significant increase | intracellular proliferation of Salmonella Typhimurium in treated PAM in comparison to non-treated cells ([3]; 24 hours): higher | concentration leading to a significant dose-dependent increase of the number of intracellular bacteria ([3]; PAM, 24 hours): 100 nM | number of proteins more abundant in cortisol treated PAM [4]: 21 | number of proteins with higher levels in untreated PAM [4]: Two | number of proteins with recurrent expressional differences, treated vs untreated infected PAM [4]: 23 | invasion in PAM ([5]; 0.001 to 100 μM): did neither affect | effect on cell viability (PAM): did not exert a notable effect | invasion in IPEC-J2 cells ([6]; 0.001 to 100 μM): did neither affect | gene expression levels by microarray analysis [7]: did not significantly affect | intracellular proliferation of Salmonella Typhimurium in IPEC-J2 cells ([8]; 0.001 to 100 μM): did neither affect | growth of Salmonella [9]: did not affect

NC[C@H](O)c1ccc(O)c(O)c1 [norepinephrine]
intracellular proliferation of Salmonella Typhimurium in PAM [3]: did neither affect | invasion of Salmonella Typhimurium in PAM [5]: did neither affect | invasion of Salmonella Typhimurium in IPEC-J2 cells [6]: did neither affect | intracellular proliferation of Salmonella Typhimurium in IPEC-J2 cells ([8]; 1 μM): did neither affect

NCCc1ccc(O)c(O)c1 [dopamine]
intracellular proliferation of Salmonella Typhimurium in PAM [3]: did neither affect | invasion of Salmonella Typhimurium in PAM [5]: did neither affect | invasion of Salmonella Typhimurium in IPEC-J2 cells [6]: did neither affect | intracellular proliferation of Salmonella Typhimurium in IPEC-J2 cells ([8]; 1 μM): did neither affect

C=C1[C@@H](C)[C@H]2[C@H](Cc3ccccc3)NC(=O)[C@]23[C@H](OC(C)=O)/C=C/[C@@](C)(O)C(=O)[C@@H](C)C/C=C/[C@H]3[C@@H]1O [cytochalasin D]
cortisol induced increased survival of the bacterium in PAM [1]: inhibition

CNC[C@H](O)c1ccc(O)c(O)c1 [Epinephrine, epinephrine]
intracellular proliferation of Salmonella Typhimurium in PAM [3]: did neither affect | invasion of Salmonella Typhimurium in PAM [5]: did neither affect | invasion of Salmonella Typhimurium in IPEC-J2 cells [6]: did neither affect | intracellular proliferation of Salmonella Typhimurium in IPEC-J2 cells ([8]; 1 μM): did neither affect

C[C@@H]1C[C@H]2[C@@H]3CCC4=CC(=O)C=C[C@]4(C)[C@@]3(F)[C@@H](O)C[C@]2(C)[C@@]1(O)C(=O)CO [dexamethasone]
immunosuppression of the pig (pig): does not cause immunosuppression | effect on cell viability (PAM): did not exert a notable effect
